Assay results taken from patent publication US20100099700A1, “HYDROGENATED PYRIDO (4,3-B) INDOLES FOR TREATING AMYOTROPHIC LATERAL SCLEROSIS (ALS)” (priority 2006, published 2010).
Entries after “also recorded” stand apart in the source; their conditions may differ. Like-named read-outs stand apart in the source and are kept apart here.

Columns and labels:
[1] = system: transgenic Drosophila engineered to express the mutant huntingtin protein in all their neurons; details: historical positive control; cited from earlier work
[2] = system: wildtype Drosophila fruit flies; test: Toxicity of dimebon in wildtype Drosophila (eclosion number and timing); assay type: in vivo; details: daily
Procedure: Dimebon was evaluated for toxicity levels in wildtype Drosophila fruit flies as described in U.S. Provisional Patent Application No. 60/723,403. Dimebon was administered daily at doses ranging from 10 μM to 1 mM to explore its toxicity. An untreated control group was also studied in this experiment. The concentrations given were concentrations of dimebon in the food that animals drink/eat ad libitum. The food consisted of cornmeal, dextrose, yeast and agar.
About 500 wild type Drosophila eggs were collected on grape juice plates, washed with distilled water and transferred 100 per vial to grow at 25 degrees C. The adult progeny were scored after eclosing (emerging from the pupal case) beginning 10 days later. The criteria used for toxicity were the number (%) of animals that eclose and the time of the eclosing. For example, fewer animals may emerge from the pupal case if a drug is toxic or the same number of animals may eclose but more slowly than the untreated control group.

[3] = system: transgenic Drosophila engineered to express the mutant huntingtin protein in all their neurons; test: Inhibition of mutant huntingtin-induced neurodegeneration of photoreceptor neurons in Drosophila eyes (pseudopupil method); assay type: in vivo; details: 7 days
Procedure: Dimebon was administered to one group of transgenic Drosophila engineered to express the mutant huntingtin protein in all their neurons as described in U.S. Provisional Patent Application No. 60/723,403. This was accomplished by cloning a foreign gene into transposable p-element DNA vectors under control of a yeast upstream activator sequence that was activated by the yeast GAL4 transcription factor. These promoter fusions were injected into fly embryos to produce transgenic animals. The foreign gene is silent until crossed to another transgenic strain of flies expressing the GAL4 gene in a tissue specific manner. The Elav>Gal4 which expresses the transgene in all neurons from birth until death was used in the experiments described. The two types of transgenic animals were crossed in order to collect enough closely matched aged controls to study. The crossed aged-matched adults (−20 per dosing group) were placed on drug containing food for 7 days. Animals were transferred to fresh food daily to minimize any effects caused by instability of the compounds. Survival was scored daily. At day 7, animals were sacrificed and the number of photoreceptor neurons surviving was counted.

G93AmSOD mice = test: G93AmSOD transgenic mouse treatment model (time to stage 2 / stage 1 disease); assay type: in vivo
Procedure: For this study, G93AmSOD mice were randomized into 4 treatment groups. Mice were weaned and raised on a normal diet for 85 days. Beginning at approximately day 80 or earlier if noted clinically, animals underwent daily assessment for hind limb weakness (time to stage 3 disease). In general, this occurred within a week of day 85. At 85 days, mice were given dimebon in the drinking water at the following concentrations: vehicle control (0 mg/kg/day), low dose (3 mg/kg/day), medium dose (10 mg/kg/day), and high dose (30 mg/kg/day). The drinking water was changed every 3-4 days, and each cage held approximately 3-5 animals.
Animals were weighed and analyzed daily to assess their strength and function. The day during which hind limb paralysis occurred was recorded (progression to stage 2 disease). Also recorded was the day at which the animals could no longer right themselves after 30 seconds (progression to stage 1 disease—a surrogate for mortality). Upon reaching stage 1 disease, animals were euthanized. […] When animals were no longer able to reliably reach the drinking water, they were given their daily mg/kg dose by intraperitoneal injection. Analyses were performed to compare the groups in terms of time to reach stage 2 and time to reach stage 1. As described further below, a Cox proportional hazards model including the effect of treatment group was fit.
(§1) A Cox proportional hazards regression model including the effect of treatment group was fit for the time to stage 2 for both sexes combined. In addition to testing the null hypothesis of no difference among the four groups, pair wise comparisons of each of the treated groups to the control group were tested. The model was fit using the SAS PHREG procedure. The same type of model was then fit to the data for each sex separately.
as §1, with “1” for “2”

primary chick neurons [4] = test: 2% growth factor withdrawal (low serum) assay, MTT viability; assay type: cell-based, chicken
Procedure: (§2) Cells: Lohman Brown chicken embryo hybrids were used for the assay. One-day-old fertilised eggs were purchased from a local chicken breeder (Schropper Geflügel GmbH, Austria) and stored in the lab under appropriate conditions (12° C. and 80% humidity). At embryonic day 0 eggs were transferred into a breeding incubator and stored under permanent turning until embryonic day 8 at 37.8° C. and 55% humidity. Approximately five to six chicken embryos were used for isolation of neurons per experiment.
(§3) Eggs were wiped with 70% ethanol and cracked with large forceps at the blunt end. After decapitation of the embryo, the tissue covering the telencephalon was removed and hemispheres collected. After removing any loose tissue and remaining meningeal membranes, hemispheres were transferred into a dish containing nutrition medium. The tissue was dissociated mechanically by using a 1 ml pipette and by squeezing 3 times through a sterile nylon sieve with a pore size of 100 μm.
(§4) Poly-D-Lysine coated 96-well microtiter plates (Biocoat) were used to culture the cells. Culture medium (160 μl) containing 3×10^5 cells/ml nutrition medium (48 000 cells/well) were added to each well of a microtiter plate Plates were kept at 37° C., 95% humidity and 5% CO2 without change of media. Neurons begin to extend processes after a few hours in culture.
Low Serum Culture Conditions: The low serum medium used for the 2% growth factor withdrawal experiments described here includes EMEM with 1 g glucose/l and 2% FCS. The control medium includes DMEM with 4.5 g glucose/l and 5% Nu Serum. […]
Dimebon was applied to the cells on day 1 for the whole experimental period of 8 days. Viability of cells was determined with the MTT assay using a plate-reader (570 nM). […] Since this reaction is catalysed in living cells only the assay can be used for the quantification of cell viability. […] To estimate optical density a plate-reader (Anthos HT II) was used at wavelength 570 nM. […]

primary chick neurons [5] = test: 2% growth factor withdrawal (low serum) assay, AM-Calcein; assay type: cell-based, chicken; details: p<0.01, 8 days
Procedure: as §2, §3
as §4, with “culture. […]” for “culture.”

[6] = 3 mg/kg/day versus vehicle, both sexes combined
[7] = 3 mg/kg/day versus vehicle, females
[8] = 3 mg/kg/day versus vehicle, males
[9] = 3 mg/kg/day, both sexes combined
[10] = 10 mg/kg/day versus vehicle, both sexes combined
[11] = 10 mg/kg/day versus vehicle, females
[12] = 10 mg/kg/day versus vehicle, males
[13] = 10 mg/kg/day, both sexes combined
[14] = 30 mg/kg/day versus vehicle, both sexes combined
[15] = 30 mg/kg/day versus vehicle, females
[16] = 30 mg/kg/day versus vehicle, males
[17] = 30 mg/kg/day, both sexes combined

C[C@@H](N)[C@H]1CC[C@H](C(=O)Nc2ccncc2)CC1 [Y-27632]
rescue of photoreceptor neurons [1]: strongly rescuing

Cc1ccc2c(c1)c1c(n2CCc2ccc(C)nc2)CCN(C)C1.Cl.Cl [dimebon, 2,8-dimethyl-5-(2-(6-methyl-3-pyridyl)-ethyl)-2,3,4,5-tetrahydro-1H-pyrido(4,3-b)indol dihydrochloride]
% of animals eclosing ([2]; 1 mM in food): decrease | timing of emergence slowed ([2]; 1 mM in food): approximately 1 day | toxicity (% of animals that eclose and time of eclosing) ([2]; doses below 1 mM in food, dihydrochloride): no significant toxicity; also recorded: did not show significant toxicity | rescue of photoreceptor neurons ([3]; 10 μM in food): lesser but still apparent rescue of neurons | rescue of photoreceptor neurons compared to untreated controls ([3]; 100 μM in food): statistically significant (p=0.0014) rescue of neurons | rescue of photoreceptor neurons ([3]; 1 mM in food): still appeared to cause neuronal rescue, but to a lesser extent | Time to Stage 1: hazard ratio (Cox proportional hazards) (G93AmSOD mice; [6]): 1.112 | Time to Stage 2: hazard ratio (Cox proportional hazards) (G93AmSOD mice; [6]): 0.969 | Time to Stage 1: hazard ratio (Cox proportional hazards) (G93AmSOD mice; [7]): 1.089 | Time to Stage 2: hazard ratio (Cox proportional hazards) (G93AmSOD mice; [7]): 0.882 | Time to Stage 1: hazard ratio (Cox proportional hazards) (G93AmSOD mice; [8]): 0.967 | Time to Stage 2: hazard ratio (Cox proportional hazards) (G93AmSOD mice; [8]): 0.984 | Mean Time to Stage 1 (Expressed as a Percentage of the Mean in the Vehicle Group) (G93AmSOD mice; [9]): 98.8% | Mean Time to Stage 2 (Expressed as a Percentage of the Mean in the Vehicle Group) (G93AmSOD mice; [9]): 99.8% | Mean Time to Stage 1 (Expressed as a Percentage of the Mean in the Vehicle Group) (G93AmSOD mice; 3 mg/kg/day, females): 97.4% | Mean Time to Stage 2 (Expressed as a Percentage of the Mean in the Vehicle Group) (G93AmSOD mice; 3 mg/kg/day, females): 100.2% | Mean Time to Stage 1 (Expressed as a Percentage of the Mean in the Vehicle Group) (G93AmSOD mice; 3 mg/kg/day, males): 100.2% | Mean Time to Stage 2 (Expressed as a Percentage of the Mean in the Vehicle Group) (G93AmSOD mice; 3 mg/kg/day, males): 99.4% | Time to Stage 1: hazard ratio (Cox proportional hazards) (G93AmSOD mice; [10]): 0.738 | Time to Stage 2: hazard ratio (Cox proportional hazards) (G93AmSOD mice; [10]): 0.652 | Time to Stage 1: hazard ratio (Cox proportional hazards) (G93AmSOD mice; [11]): 0.855 | Time to Stage 2: hazard ratio (Cox proportional hazards) (G93AmSOD mice; [11]): 0.659 | Time to Stage 1: hazard ratio (Cox proportional hazards) (G93AmSOD mice; [12]): 0.524 | Time to Stage 2: hazard ratio (Cox proportional hazards) (G93AmSOD mice; [12]): 0.545 | Mean Time to Stage 1 (Expressed as a Percentage of the Mean in the Vehicle Group) (G93AmSOD mice; [13]): 103.3% | Mean Time to Stage 2 (Expressed as a Percentage of the Mean in the Vehicle Group) (G93AmSOD mice; [13]): 104.9% | Mean Time to Stage 1 (Expressed as a Percentage of the Mean in the Vehicle Group) (G93AmSOD mice; 10 mg/kg/day, females): 102.3% | Mean Time to Stage 2 (Expressed as a Percentage of the Mean in the Vehicle Group) (G93AmSOD mice; 10 mg/kg/day, females): 104.9% | Mean Time to Stage 1 (Expressed as a Percentage of the Mean in the Vehicle Group) (G93AmSOD mice; 10 mg/kg/day, males): 104.2% | Mean Time to Stage 2 (Expressed as a Percentage of the Mean in the Vehicle Group) (G93AmSOD mice; 10 mg/kg/day, males): 104.9% | Time to Stage 1: hazard ratio (Cox proportional hazards) (G93AmSOD mice; [14]): 0.505 | Time to Stage 2: hazard ratio (Cox proportional hazards) (G93AmSOD mice; [14]): 0.522 | Time to Stage 1: hazard ratio (Cox proportional hazards) (G93AmSOD mice; [15]): 0.314 | Time to Stage 2: hazard ratio (Cox proportional hazards) (G93AmSOD mice; [15]): 0.359 | Time to Stage 1: hazard ratio (Cox proportional hazards) (G93AmSOD mice; [16]): 0.647 | Time to Stage 2: hazard ratio (Cox proportional hazards) (G93AmSOD mice; [16]): 0.698 | Mean Time to Stage 1 (Expressed as a Percentage of the Mean in the Vehicle Group) (G93AmSOD mice; [17]): 104.7% | Mean Time to Stage 2 (Expressed as a Percentage of the Mean in the Vehicle Group) (G93AmSOD mice; [17]): 104.8% | Mean Time to Stage 1 (Expressed as a Percentage of the Mean in the Vehicle Group) (G93AmSOD mice; 30 mg/kg/day, females): 107.0% | Mean Time to Stage 2 (Expressed as a Percentage of the Mean in the Vehicle Group) (G93AmSOD mice; 30 mg/kg/day, females): 107.7% | Mean Time to Stage 1 (Expressed as a Percentage of the Mean in the Vehicle Group) (G93AmSOD mice; 30 mg/kg/day, males): 102.4% | Mean Time to Stage 2 (Expressed as a Percentage of the Mean in the Vehicle Group) (G93AmSOD mice; 30 mg/kg/day, males): 101.8% | Emax at 6.25 µM (primary chick neurons [4]; Gallus gallus, Neuron, 192 h, 6250 nM, 8 days, read-out: maximum effect in the MTT assay, above control): ~287% | Dimebon concentrations at which statistically significant differences compared to control were achieved (primary chick neurons [4]; MTT, p<0.05, 8 days): ≥ 1250 nM | effect in the MTT assay (primary chick neurons [4]; highest tested concentration 31250 nM): less than what was achieved at a concentration of 6250 nM | Dimebon concentrations at which statistically significant differences compared to control were achieved (primary chick neurons [5]): ≥ 1250 nM
